Counter-ions that a name gives are not always drawn.
Key:
[1] = system: subjects undergoing primary unilateral TKA; assay: Safety assessments (TEAEs, SAEs, vital signs, EKG); parameters: species or system human; conditions: in vivo
Text: Safety assessments included monitoring of AEs (including SAEs and adverse events of special interest [AESIs]), vital signs (temperature, resting heart rate, respiratory rate, oxygen saturation, and blood pressure), 12 lead EKG, and recording of concomitant medications.
Safety endpoints included incidence of treatment emergent adverse events and SAEs from start of the nerve block procedure through POD14; change from baseline in vital signs over time; and abnormal post-baseline EKG findings.
Adverse events and SAEs were recorded from the time of informed consent through POD14. Adverse events were coded using the Medical Dictionary for Regulatory Activities version 24.1 and summary tables were based on the Safety Analysis Set. A subject data listing was provided for all AEs, which included the reported term, preferred term, system organ class, treatment-emergent adverse event flag, study day of AE onset, AE start/stop date and time, relationship to study drug, frequency, severity, action taken with subject, outcome, and seriousness criteria.
Vital signs and their change from baseline were summarized with mean, median, and standard deviation at baseline and at each scheduled time point. The frequency and percentage of EKG findings (normal, abnormal/not clinically significant, and abnormal/clinically significant) were summarized at screening and each scheduled time point.
An AE can be defined as any untoward medical occurrence associated with the use of a drug in humans, whether or not considered drug related. An AE (also referred to as an adverse experience) could be any unfavorable and unintended sign (e.g., abnormal laboratory finding), symptom, or disease temporally associated with the use of a drug, without any judgment about causality. An AE could arise from any use of the drug (e.g., off-label use in combination with another drug) and from any route of administration, formulation, or dose, including an overdose.
An AE that occurred after administration of the study treatment was considered a treatment-emergent adverse event (TEAE). A continuous AE with varying grades of severity was to be recorded as 1 AE. The highest grade of severity experienced by that subject during the course of the continuous AE was to be recorded.
Assessment of the relationship of the AE to study drug after careful medical consideration on a case-by-case basis. […]

[2] = Plasma bupivacaine pharmacokinetics (Cohort 1); assay type: in vivo, human
Protocol: (§1) This was a Phase 3, multicenter, randomized, double blind, active controlled study of 167 subjects undergoing primary unilateral TKA under spinal anesthesia. The study consisted of 2 cohorts that were enrolled in parallel. Cohort 1 enrolled 46 subjects to obtain information on the PK profile, pharmacodynamics (PD), efficacy, and safety. Cohort 2 enrolled 121 subjects to obtain information on efficacy and safety. An adaptive study design was used in this study, with an interim analysis conducted by an unblinded independent review committee to evaluate sample size assumptions and futility.
(§2) On the day of surgery, prior to surgery, subjects in Cohort 1 and Cohort 2 were randomized (1:1) to receive an adductor canal block with a single dose of either 10 mL EXPAREL (133 mg) admixed with 10 mL 0.5% bupivacaine HCl (50 mg; from hereon referred to as the EXP133-ADMIX arm) or 10 mL 0.5% bupivacaine HCl (50 mg) mixed with 10 mL normal saline (from hereon referred to as the BUP50 arm). The total dose volume was consistent (20 mL) for all subjects.
(§3) Efficacy assessments included pain intensity scores focused on the operative knee using the Numeric Rating Scale (NRS), total postsurgical opioid consumption in OMED, time to first opioid consumption post-surgery, and subject satisfaction using the International Pain Outcome (IPO). Additionally, blood samples for PK analysis (area under the curve [AUC], maximum plasma concentration [Cmax], time of maximum plasma concentration [Tmax], including early and late Cmax and Tmax (EXP133-ADMIX arm only), apparent terminal elimination half-life [t½e1], apparent clearance [CL/F], and apparent volume of distribution [Vd/F]) and PD assessment data (sensory and motor block) were collected from Cohort 1 subjects.
Pharmacokinetic endpoints included area under the plasma concentration-versus-time curve, specifically from the time of dosing to the time of the last quantifiable concentration (AUC0-last) and AUC from the time of dosing to infinity (AUC0-∞); maximum plasma concentration (Cmax) and time of maximum plasma concentration (Tmax) for subjects treated with bupivacaine HCl; early and late Cmax and Tmax were determined for subjects treated with EXPAREL admixed with bupivacaine HCl (EXP133-ADMIX arm); t½e1; CL/F; Vd/F.

[3] = system: subjects undergoing primary unilateral TKA; assay: Time to first opioid consumption (rescue medication) post-surgery; assay type: in vivo, human
Protocol: as §1, with “futility. […]” for “futility.”
(§4) An unscheduled pain intensity assessment using the NRS (measured as “On a scale from 0 to 10, where 0 equals no pain and 10 equals the worst possible pain, how much pain are you experiencing in your operative knee right now?”) was to be completed immediately prior to administration of any breakthrough pain medication up to 96 hours post-surgery. Medications were administered as needed; opioids were not to be given on a pre-determined schedule. […]
(§5) Total postsurgical opioid consumption in OMED from 0 to 96 hours was analyzed using an ANCOVA model. Time to first postsurgical opioid medication was analyzed using the Kaplan Meier survival method. […]

[4] = system: subjects undergoing primary unilateral TKA; assay: Total postsurgical opioid consumption (OMED) and opioid-free status; assay type: in vivo, human; conditions: any time interval up to 96 hours post-surgery
Protocol: as §1, with “futility. […]” for “futility.”
as §4, §5

[5] = system: sensory block and motor block; assay: Pharmacodynamic assessment of sensory and motor block (Cohort 1); assay type: in vivo, human
Protocol: as §1, §2, §3
Pharmacodynamic endpoints included: duration of the sensory block and motor block; time to onset of sensory block and motor block; and time to offset of sensory block and motor block.

For `CCCCN1CCCCC1C(=O)Nc1c(C)cccc1C` (stereo not drawn) [BUP50, bupivacaine HCl], the “subjects with clinically significant abnormal EKG findings” value ([1]; human) was 1 subjects, the “subjects with ≥1 TEAE” value ([1]; human) was 88.8% and the “subjects with ≥1 TEAE related to study drug” value ([1]; human) was 2 subjects. For the same compound, the “subjects discontinued from the study following SAEs” value [1] was “One”, the AUC(0-inf) ([2]; human, in vivo) was 7450 ng·h/mL and the AUC(0-t) ([2]; human, in vivo) was 7280 ng·h/mL. For the same compound, the concentration at 60 h ([2]; human, in vivo) was 43.2 ng/mL, the “median time of Cmax” value ([2]; human, in vivo) was 0.65 h and the “shape of mean bupivacaine concentration over time” value ([2]; in vivo) was “a single peak”. The Cmax ([2]; plasma bupivacaine) was 333.89 ng/mL, the “median time to first rescue medication” value [3] was 3.63 h and the subjects opioid free [4] was “No subjects”. The “subjects in whom knee extension was not present” value ([5]; 8 hours post dose (first time point with majority)) was 71.4%, the “median duration of sensory block” value ([5]; in vivo) was 11.63 h and the “time by which all subjects regained normal sensory function” value ([5]; post-dose) was no more than 24 h.
